Laboratory results: patent US20120219596A1, “INJECTABLE FORMULATION FOR TREATMENT AND PROTECTION OF PATIENTS HAVING AN INFLAMMATORY REACTION OR AN ISCHEMIA-REPERFUSION EVENT” (ETH Zurich, priority 2009, published 2012)
Read-outs that look alike come from different tables or passages of the source.

Tests used:
[1] = system: MCP-1 levels of rat alveolar epithelial cells; test: MCP-1 levels in supernatants of LPS-stimulated rat alveolar epithelial cells (ELISA); assay type: cell-based
Description: Table 2 MCP-1 levels of rat alveolar epithelial cells measured in supernatants in relation to an exposition to LPS without any substance (positive control=100%)
(§1) METHODS: Different molecules with CF3-group were tested against their corresponding non-fluorinated molecules. The group of molecules with CF3-group included hexafluoroisopropanol, 2,2,3,3,3-pentafluoro-1-propanol, 2,2,2-trifluorethanol, 3-amino-4,4,4-tri-fluorobutyroic acid, methyl-4,4,4-trifluoro-acetoacetate, methyl-trifluoro-acetamide, 5,5,5-trifluorleucine and Sevoflurane. In the group without CFx moieties 2-propanol, 1-propanol, ethanol, leucine, and diethyl ether were included. As well established model rat alveolar epithelial cells (AEC) and human blood microvascular cells (HMVEC) were exposed to phosphate-buffered saline (PBS, negative control) or LPS (20 μg/ml) for 6 hours (positive control). The influence of fluorinated compounds and non-fluorinated reference compounds on the inflammatory response of the cells was tested. Expression of rat-MCP-1 (BD Biosciences, San Diego, Calif.) and human CINC-1 GROa (R&D Systems Europe Ltd.) protein were analyzed by ELISA. Evaluation of possible cytotoxicity was done counting cells by means of fluorescence DNA quantification assays. At the same time release of lactate dehydrogenase into the supernatants was measured (LDH Assay, Promega, Madison, Wis., USA).

[2] = system: CINC-1/GROa protein levels of human blood micro vascular endothelial cells; test: CINC-1/GROa protein levels in supernatants of LPS-stimulated HMVEC (ELISA); assay type: cell-based; conditions: for CINC-1/GROa protein level in relation to LPS without any substance, Median: HMVEC, LPS 20 μg/ml 6 hours, positive control=100%
Description: Table 1 CINC-1/GROa protein levels of human blood micro vascular endothelial cells measured in supernatants in relation to an exposition to LPS without any substance (positive control=100%)
as §1

[3] = system: human microvascular endothelial cells (HMVEC); test: Viability and cytotoxicity in HMVEC (LDH release, fluorescence DNA quantification); assay type: cell-based; conditions: LDH release and cell count by fluorescence DNA quantification, in relation to control (100%), FIG. 1
Description: Viability is assessed by measuring the release of lactate de-hydrogenase and cytotoxicity is quantified by counting cells by means of fluorescence DNA quantification assays (see example 1). […] Concentration level differences are presented in relation to control (100%).
as §1

[4] = cited from earlier work
[5] = cited from earlier work; remark: listed apart in the source
[6] = system: inflammatory mediators and tissue damage markers (troponin or serum transaminase levels); conditions: patients undergoing lung, heart or liver surgery; cited from earlier work
[7] = system: polymorphonuclear neutrophils; test: Chemotactic migration of polymorphonuclear neutrophils towards supernatants from LPS-stimulated endothelial cells; assay type: cell-based; conditions: 16 mmol/L, FIG. 2
Description: Furthermore, the effect of hexafluoro-2-propanol in a concentration of 16 mmol/L on the chemotactic migration of polymorphonuclear neutrophils towards supernatants from LPS-stimulated endothelial cells (right side, 270)° and towards supernatants from LPS-stimulated endothelial cells incubated with hexafluoro-2-propanol (left side, 90°) was assessed according to (De Conno et al., Anesthesiology 2009; 110:1316-1326)

[8] = rat AEC, LPS 20 μg/ml 6 hours, 16 mmol/l in culture medium, positive control=100%
[9] = rat AEC, LPS 20 μg/ml 6 hours, 32 mmol/l in culture medium, positive control=100%
[10] = rat AEC, LPS 20 μg/ml 6 hours, 64 mmol/l in culture medium, positive control=100%
[11] = Epithelial cell, rat AEC, LPS 20 μg/ml 6 hours, 16 mmol/l in culture medium, positive control=100%, read-out: MCP-1 level in relation to LPS without any substance, Median
[12] = Epithelial cell, rat AEC, LPS 20 μg/ml 6 hours, 64 mmol/l in culture medium, positive control=100%, read-out: MCP-1 level in relation to LPS without any substance, Median
[13] = footnote 1: Qiana et al., Journal of Chromatography A 2007
[14] = Epithelial cell, rat AEC, LPS 20 μg/ml 6 hours, 32 mmol/l in culture medium, positive control=100%, read-out: MCP-1 level in relation to LPS without any substance, Median
[15] = Rattus norvegicus, Epithelial cell, 6 h, read-out: MCP-1 level in relation to LPS without any substance, Median

## CC(N)CC(=O)O (racemic) [DL-3-Amino-n-butyric acid, reference compound]
[1]; rat AEC, LPS 20 μg/ml 6 hours, 8 mmol/l in culture medium, positive control=100%
  MCP-1 level in relation to LPS without any substance, Median: 95%
[1]; [8]
  MCP-1 level in relation to LPS without any substance, Median: 91%
[1]; [9]
  MCP-1 level in relation to LPS without any substance, Median: 149%
[1]; [10]
  MCP-1 level in relation to LPS without any substance, Median: 117%

## CCCO [1-Propanol, reference compound]
[2]; 16 mmol/l in culture medium
  CINC-1/GROa protein level in relation to LPS without any substance, Median: 82%
[2]; 32 mmol/l in culture medium
  CINC-1/GROa protein level in relation to LPS without any substance, Median: 81%
[2]; 64 mmol/l in culture medium
  CINC-1/GROa protein level in relation to LPS without any substance, Median: 64%
[1]; [8]
  MCP-1 level in relation to LPS without any substance, Median: 99%
[1]; [10]
  MCP-1 level in relation to LPS without any substance, Median: 74%

## OCC(F)(F)F [2,2,2-Trifluorethanol, 2,2,2-Trifluoroethanol]
[2]; 16 mmol/l in culture medium
  CINC-1/GROa protein level in relation to LPS without any substance, Median: 98%
[2]; 32 mmol/l in culture medium
  CINC-1/GROa protein level in relation to LPS without any substance, Median: 78%
[2]; 64 mmol/l in culture medium
  CINC-1/GROa protein level in relation to LPS without any substance, Median: 73%
[1]; [11]
  activity at 16000 µM: 58%
[1]; [12]
  activity at 64000 µM: 59%
[3]
  Viability and cytotoxicity in HMVEC: does not cause significant cytotoxicity
[4]; [13]
  Octanol water partition coefficient: 0.17 ^(1)
[5]; in words
  Solubility: miscible

## OCC(F)(F)C(F)(F)F [2,2,3,3,3-Pentafluoro-1-propanol]
[2]; 16 mmol/l in culture medium
  CINC-1/GROa protein level in relation to LPS without any substance, Median: 115%
[2]; 32 mmol/l in culture medium
  CINC-1/GROa protein level in relation to LPS without any substance, Median: 41%
[2]; 64 mmol/l in culture medium
  CINC-1/GROa protein level in relation to LPS without any substance, Median: 31%
[1]; [11]
  activity at 16000 µM: 92%
[1]; [12]
  activity at 64000 µM: 70%
[5]; 25° C.
  Solubility: 21.9 g/L (25° C.)

## CC(C)O [2-Propanol, reference compound]
[2]; 4 mmol/l in culture medium
  CINC-1/GROa protein level in relation to LPS without any substance, Median: 109%
[2]; 16 mmol/l in culture medium
  CINC-1/GROa protein level in relation to LPS without any substance, Median: 97%
[1]; [8]
  MCP-1 level in relation to LPS without any substance, Median: 101%
[1]; [9]
  MCP-1 level in relation to LPS without any substance, Median: 86%
[1]; [10]
  MCP-1 level in relation to LPS without any substance, Median: 82%

## NC(CC(=O)O)C(F)(F)F (centres unmarked) [3-Amino-4,4,4-Trifluorobutyroic acid, 3-Amino-4,4,4-trifluorobutyric acid]
[2]; 8 mmol/l in culture medium
  CINC-1/GROa protein level in relation to LPS without any substance, Median: 79%
[2]; 16 mmol/l in culture medium
  CINC-1/GROa protein level in relation to LPS without any substance, Median: 0%
[2]; 64 mmol/l in culture medium
  CINC-1/GROa protein level in relation to LPS without any substance, Median: 0%
[1]; [11]
  activity at 16000 µM: 101%
[1]; [14]
  activity at 32000 µM: 44%
[1]; [12]
  activity at 64000 µM: 0%
[3]
  Viability and cytotoxicity in HMVEC: does not cause significant cytotoxicity
other
  melting point: 180 to 190 °C

## CC(C[C@H](N)C(=O)O)C(F)(F)F (some centres unmarked) [5,5,5-Trifluorleucine]
[1]; [8]
  MCP-1 level in relation to LPS without any substance, Median: 68%

## ClC(Cl)Cl [Chloroform, reference compound]
[1]; [15]
  activity at 64000 µM: 171%

## FC(F)OC(F)C(F)(F)F (centres unmarked) [Desflurane]
[4]; footnote 2: Urban et al. 1995
  Octanol water partition coefficient: 28.5
[6]
  Inflammatory mediators and tissue damage markers in patients: significantly reduces

## CCO [Ethanol, reference compound]
[2]; 16 mmol/l in culture medium
  CINC-1/GROa protein level in relation to LPS without any substance, Median: 107%
[2]; 32 mmol/l in culture medium
  CINC-1/GROa protein level in relation to LPS without any substance, Median: 91%
[2]; 64 mmol/l in culture medium
  CINC-1/GROa protein level in relation to LPS without any substance, Median: 88%
[1]; [11]
  activity at 16000 µM: 103%
[1]; [12]
  activity at 64000 µM: 92%

## FC(F)(F)C(Cl)Br (centres unmarked) [Halothane]
[4]; footnote 2: Urban et al. 1995
  Octanol water partition coefficient: 315

## OC(C(F)(F)F)C(F)(F)F [Hexafluoroisopropanol, 1,1,1,3,3,3-Hexafluoropropan-2-ol]
[2]; 4 mmol/l in culture medium
  CINC-1/GROa protein level in relation to LPS without any substance, Median: 49%
[2]; 16 mmol/l in culture medium
  CINC-1/GROa protein level in relation to LPS without any substance, Median: 26%
[2]; LPS stimulation
  CINC-1 levels of endothelial cells stimulated with LPS (in words): decrease was most pronounced
[1]; Epithelial cell, rat AEC, LPS 20 μg/ml 6 hours, 4 mmol/l in culture medium, positive control=100%, read-out: MCP-1 level in relation to LPS without any substance, Median
  activity at 4000 µM: 98%
[1]; Epithelial cell, rat AEC, LPS 20 μg/ml 6 hours, 8 mmol/l in culture medium, positive control=100%, read-out: MCP-1 level in relation to LPS without any substance, Median
  activity at 8000 µM: 101%
[1]; [11]
  activity at 16000 µM: 63%
[1]; [14]
  activity at 32000 µM: 11%
[1]; LPS stimulation
  MCP-1 levels of epithelial cells stimulated with LPS (in words): decrease was most pronounced
[3]
  Viability and cytotoxicity in HMVEC: does not cause significant cytotoxicity
[7]
  Chemotaxis for neutrophils: significantly attenuated chemotaxis
[4]; [13]
  Octanol water partition coefficient: 0.37 ^(1)
[5]; 25° C.
  Solubility: 1000 g/L (25° C.)

## FC(F)OC(Cl)C(F)(F)F (centres unmarked) [Isoflurane]
[4]; footnote 2: Urban et al. 1995
  Octanol water partition coefficient: 156
[6]
  Inflammatory mediators and tissue damage markers in patients: significantly reduces

## CC(C)C[C@H](N)C(=O)O [Leucine, reference compound]
[1]; [11]
  activity at 16000 µM: 91%

## COC(=O)CC(=O)C(F)(F)F [Methyl-4,4,4-trifluoro-acetoacetate]
[1]; [11]
  activity at 16000 µM: 7%
[1]; [14]
  activity at 32000 µM: 0%

## CNC(=O)C(F)(F)F [Methyltrifluoroacetamide, N-Methyl-2,2,2-trifluoroacetamide]
[1]; [15]
  activity at 8000 µM: 80%
  activity at 16000 µM: 56%
  activity at 32000 µM: 41%
  activity at 64000 µM: 0%

## Enflurane
[4]; footnote 2: Urban et al. 1995
  Octanol water partition coefficient: 122

## Sevoflurane
[1]; [10]
  MCP-1 level in relation to LPS without any substance, Median: 68%
[4]; footnote 2: Urban et al. 1995
  Octanol water partition coefficient: 71
[6]
  Inflammatory mediators and tissue damage markers in patients: significantly reduces
